The source of these data is patent US20240376121A1, “COMPOUNDS AND USES THEREOF” (Foghorn Therapeutics Inc., priority 2021, published 2024).

Some results are limits rather than exact numbers.

Assay [1] deals with T1, HiBit-BRG1 fusion protein (Homo sapiens, UniProt P51532).
T1 construct: expressed in transfected cells
As to the kind of experiment: HiBiT-BRG1 cell-based degradation assay (Nano-Glo HiBiT Lytic Detection). The settings on record: stable HeLa cell line expressing HiBit-BRG1 and LgBit, 24 h incubation; for Dmax: top dose 30 μM, read-out: BRG1 HiBit Degradation Maximum (%); for DC50: read-out: BRMG1 HiBit Degradation IC50. The method in brief: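 Degradation was scored from HiBiT lytic luminescence, scaled between DMSO-treated wells and wells given 2 μM of a standard BRM/BRG1 degrader. Cells were a stable HeLa HiBiT-BRG1/LgBiT line dosed for 24 h, ten concentrations in 3-fold steps from 30 μM, in duplicate.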

Assay [2] concerns the target T2, HiBit-BRM fusion protein (Homo sapiens, UniProt P51531).
T2 construct: expressed in transfected cells
As to the kind of experiment: HiBiT-BRM cell-based degradation assay (Nano-Glo HiBiT Lytic Detection). The settings on record: stable HeLa cell line expressing HiBiT-BRM, 24 h incubation; for BRM HiBit Degradation Maximum (%): top dose 30 μM; for DC50: read-out: BRM HiBit Degradation IC50. The method in brief: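 Percent BRM loss was derived from HiBiT luminescence relative to DMSO-treated cells and cells given 2 μM of a known BRM/BRG1 degrader. Treatment lasted 24 h in HiBiT-BRM HeLa cells, with a top final concentration of 30 μM.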

T1 sequence (P51532 whole entry, the tested form may be a part): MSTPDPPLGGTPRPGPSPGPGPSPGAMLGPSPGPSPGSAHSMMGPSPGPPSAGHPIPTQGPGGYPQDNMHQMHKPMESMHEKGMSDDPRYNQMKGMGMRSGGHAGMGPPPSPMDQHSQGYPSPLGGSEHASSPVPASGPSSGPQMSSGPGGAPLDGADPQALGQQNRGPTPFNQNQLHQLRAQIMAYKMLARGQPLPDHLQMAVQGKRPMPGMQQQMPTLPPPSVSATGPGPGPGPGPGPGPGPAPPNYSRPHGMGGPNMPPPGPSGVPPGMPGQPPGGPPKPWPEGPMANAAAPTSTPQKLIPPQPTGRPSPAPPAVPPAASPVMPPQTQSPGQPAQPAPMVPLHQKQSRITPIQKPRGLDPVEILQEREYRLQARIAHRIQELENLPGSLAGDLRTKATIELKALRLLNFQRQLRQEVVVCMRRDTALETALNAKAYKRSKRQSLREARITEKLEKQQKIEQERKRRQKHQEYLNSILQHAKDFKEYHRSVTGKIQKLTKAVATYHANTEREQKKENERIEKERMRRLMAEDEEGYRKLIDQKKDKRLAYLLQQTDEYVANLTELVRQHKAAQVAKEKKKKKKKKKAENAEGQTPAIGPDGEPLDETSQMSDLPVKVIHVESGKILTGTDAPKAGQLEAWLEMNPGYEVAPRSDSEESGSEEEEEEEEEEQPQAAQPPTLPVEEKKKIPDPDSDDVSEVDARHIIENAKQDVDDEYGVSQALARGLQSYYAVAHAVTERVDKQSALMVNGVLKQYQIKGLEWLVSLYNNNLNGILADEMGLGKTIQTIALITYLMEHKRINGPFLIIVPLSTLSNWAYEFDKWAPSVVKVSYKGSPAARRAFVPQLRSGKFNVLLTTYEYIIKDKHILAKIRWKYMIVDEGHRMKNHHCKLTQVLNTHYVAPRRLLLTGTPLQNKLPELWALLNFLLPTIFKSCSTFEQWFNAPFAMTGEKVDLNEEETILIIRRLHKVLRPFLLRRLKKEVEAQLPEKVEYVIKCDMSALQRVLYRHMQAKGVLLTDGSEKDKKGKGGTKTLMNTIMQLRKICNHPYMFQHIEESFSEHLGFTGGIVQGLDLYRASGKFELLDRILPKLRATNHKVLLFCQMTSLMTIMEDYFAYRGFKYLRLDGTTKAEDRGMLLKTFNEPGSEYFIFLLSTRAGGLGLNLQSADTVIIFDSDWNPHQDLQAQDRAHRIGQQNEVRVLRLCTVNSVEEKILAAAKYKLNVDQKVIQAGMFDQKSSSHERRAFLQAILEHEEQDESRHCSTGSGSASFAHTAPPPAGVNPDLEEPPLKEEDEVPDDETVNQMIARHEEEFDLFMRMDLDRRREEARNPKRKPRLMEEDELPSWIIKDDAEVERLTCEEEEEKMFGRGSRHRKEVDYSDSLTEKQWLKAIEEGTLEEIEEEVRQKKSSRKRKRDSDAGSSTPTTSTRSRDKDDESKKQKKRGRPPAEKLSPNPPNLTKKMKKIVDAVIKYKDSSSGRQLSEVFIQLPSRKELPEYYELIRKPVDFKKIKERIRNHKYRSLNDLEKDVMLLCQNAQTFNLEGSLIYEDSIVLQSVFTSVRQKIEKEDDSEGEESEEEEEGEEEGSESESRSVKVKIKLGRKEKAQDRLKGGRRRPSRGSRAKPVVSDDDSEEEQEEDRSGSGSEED
T2 sequence (P51531 whole entry, the tested form may be a part): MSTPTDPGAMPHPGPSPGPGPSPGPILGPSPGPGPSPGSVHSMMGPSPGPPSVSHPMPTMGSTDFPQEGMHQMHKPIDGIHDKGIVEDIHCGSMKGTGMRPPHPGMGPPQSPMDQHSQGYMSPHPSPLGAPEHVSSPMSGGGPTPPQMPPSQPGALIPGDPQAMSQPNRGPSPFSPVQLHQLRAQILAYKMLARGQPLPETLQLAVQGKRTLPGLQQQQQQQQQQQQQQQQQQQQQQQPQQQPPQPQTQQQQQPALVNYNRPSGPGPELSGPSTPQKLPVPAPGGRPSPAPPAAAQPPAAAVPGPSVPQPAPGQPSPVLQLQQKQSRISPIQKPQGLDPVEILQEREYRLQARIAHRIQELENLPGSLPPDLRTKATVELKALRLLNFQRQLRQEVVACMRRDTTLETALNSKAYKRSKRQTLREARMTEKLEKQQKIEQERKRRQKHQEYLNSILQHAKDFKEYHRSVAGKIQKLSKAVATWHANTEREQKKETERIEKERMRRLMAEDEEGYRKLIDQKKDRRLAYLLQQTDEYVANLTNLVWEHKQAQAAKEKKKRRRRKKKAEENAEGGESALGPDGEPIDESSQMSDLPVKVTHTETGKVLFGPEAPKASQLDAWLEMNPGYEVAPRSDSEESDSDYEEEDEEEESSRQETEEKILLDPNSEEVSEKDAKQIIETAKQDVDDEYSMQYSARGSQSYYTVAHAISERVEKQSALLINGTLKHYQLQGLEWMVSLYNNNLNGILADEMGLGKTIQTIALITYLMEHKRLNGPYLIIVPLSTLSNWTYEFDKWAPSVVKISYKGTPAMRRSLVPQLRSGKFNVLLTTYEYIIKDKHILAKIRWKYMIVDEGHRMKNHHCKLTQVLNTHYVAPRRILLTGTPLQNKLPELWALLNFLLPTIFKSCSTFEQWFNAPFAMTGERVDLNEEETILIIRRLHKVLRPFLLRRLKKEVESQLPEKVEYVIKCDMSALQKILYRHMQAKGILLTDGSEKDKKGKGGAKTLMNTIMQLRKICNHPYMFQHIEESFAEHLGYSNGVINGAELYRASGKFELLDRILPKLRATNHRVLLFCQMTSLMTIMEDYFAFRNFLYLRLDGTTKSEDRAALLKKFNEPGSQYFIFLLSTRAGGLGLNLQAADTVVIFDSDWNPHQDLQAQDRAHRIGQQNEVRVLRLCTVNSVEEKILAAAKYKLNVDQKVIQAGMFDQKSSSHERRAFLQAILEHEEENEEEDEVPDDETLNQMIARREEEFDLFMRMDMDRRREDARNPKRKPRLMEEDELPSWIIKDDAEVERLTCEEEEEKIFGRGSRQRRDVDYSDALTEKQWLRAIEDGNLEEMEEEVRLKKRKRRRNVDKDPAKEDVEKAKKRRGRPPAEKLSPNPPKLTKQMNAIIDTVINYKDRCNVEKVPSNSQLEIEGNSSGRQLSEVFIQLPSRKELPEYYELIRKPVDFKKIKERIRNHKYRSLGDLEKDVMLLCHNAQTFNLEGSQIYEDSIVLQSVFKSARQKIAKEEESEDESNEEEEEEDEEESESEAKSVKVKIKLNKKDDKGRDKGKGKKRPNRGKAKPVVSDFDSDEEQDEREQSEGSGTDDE

As for `Cc1ncsc1-c1ccc([C@H](C)NC(=O)[C@@H]2C[C@@H](O)CN2C(=O)[C@@H](c2cc(OCCN3CC(Cc4csc5nnc(-c6ccccc6O)cc45)C3)no2)C(C)C)cc1` [Compound 111, (2S,4R)-4-hydroxy-1-((R)-2-(3-(2-(3-((3-(2-hydroxyphenyl)thieno[2,3-c]pyridazin-5-yl)methyl)azetidin-1-yl)ethoxy)isoxazol-5-yl)-3-methylbutanoyl)-N-((S)-1-(4-(4-methylthiazol-5-yl)phenyl)ethyl)pyrrolidine-2-carboxamide], in assay [1], the Dmax is less than 50% and the DC50 is not below 1000 nM. Moreover, in assay [2], the “BRM HiBit Degradation Maximum (%)” value is listed as “C (“C” indicates maximum degradation < 50%)” and the DC50 is not below 1000 nM.
`Cc1ncsc1-c1ccc([C@H](C)NC(=O)[C@@H]2C[C@@H](O)CN2C(=O)[C@@H](c2cc(OCCN3CC(c4c(C)sc5nnc(-c6ccccc6O)cc45)C3)no2)C(C)C)cc1` [Compound 14]: in assay [1], the Dmax is less than 50% and the DC50 is not below 1000 nM. Also, in assay [2], the “BRM HiBit Degradation Maximum (%)” value is given as “C (“C” indicates maximum degradation < 50%)” and the DC50 is not below 1000 nM.
As to `Cc1ncsc1-c1ccc([C@H](C)NC(=O)[C@@H]2C[C@@H](O)CN2C(=O)[C@@H](c2cc(OCCNC(=O)[C@@H]3CCc4sc5nnc(-c6ccccc6O)cc5c4C3)no2)C(C)C)cc1` [Compound 46, (R)-N-(2-((5-((R)-1-((2S,4R)-4-hydroxy-2-(((S)-1-(4-(4-methylthiazol-5-yl)phenyl)ethyl)carbamoyl)pyrrolidin-1-yl)-3-methyl-1-oxobutan-2-yl)isoxazol-3-yl)oxy)ethyl)-3-(2-hydroxyphenyl)-5,6,7,8-tetrahydrobenzo[4,5]thieno[2,3-c]pyridazine-6-carboxamide], in assay [1], the Dmax was less than 50% and the DC50 is not below 1000 nM. In assay [2], the “BRM HiBit Degradation Maximum (%)” value was “C (“C” indicates maximum degradation < 50%)” and the DC50 was not below 1000 nM.
Consider `Cc1ncsc1-c1ccc(CNC(=O)[C@@H]2C[C@@H](O)CN2C(=O)[C@@H](NC(=O)CCCC(=O)N2CC(c3sc4nnc(-c5ccccc5O)cc4c3C)C2)C(C)(C)C)cc1` [Compound 19], for which, in assay [1], the Dmax is not below 75% and the DC50 is not below 1000 nM. Further, in assay [2], the “BRM HiBit Degradation Maximum (%)” value is “A (“A” indicates maximum degradation ≥ 75%)” and the DC50 is not below 1000 nM.
For the compound `Cc1ncsc1-c1ccc([C@H](C)NC(=O)[C@@H]2C[C@@H](O)CN2C(=O)[C@@H](c2cc(OCCN3CCc4sc5nnc(-c6ccccc6O)cc5c4C3)no2)C(C)C)cc1` [Compound 109, (2S,4R)-4-hydroxy-1-((R)-2-(3-(2-(3-(2-hydroxyphenyl)-7,8-dihydropyrido[3′,4′:4,5]thieno[2,3-c]pyridazin-6(5H)-yl)ethoxy)isoxazol-5-yl)-3-methylbutanoyl)-N-((S)-1-(4-(4-methylthiazol-5-yl)phenyl)ethyl)pyrrolidine-2-carboxamide], in assay [1], the Dmax was less than 50% and the DC50 was not below 1000 nM. In addition, in assay [2], the “BRM HiBit Degradation Maximum (%)” value is listed as “C (“C” indicates maximum degradation < 50%)” and the DC50 was not below 1000 nM.
With `Cc1ncsc1-c1ccc(CNC(=O)[C@@H]2C[C@@H](O)CN2C(=O)[C@@H](c2cc(N3CCOCC3)no2)C(C)C)c(OCCCN2CCC(c3sc4nnc(-c5ccccc5O)cc4c3C)CC2)c1` (single isomer, unassigned) [Compound 56], in assay [1], the Dmax is less than 50% and the DC50 was not below 1000 nM. Further, in assay [2], the “BRM HiBit Degradation Maximum (%)” value is recorded as “B (“B” indicates maximum degradation ≥ 50%)” and the DC50 was not below 10 nM.
The like results for `Cc1ncsc1-c1ccc(CNC(=O)[C@@H]2C[C@@H](O)CN2C(=O)[C@@H](NC(=O)CCC(=O)N2CCC(c3cc4nnc(-c5ccccc5O)cc4s3)CC2)C(C)(C)C)cc1` [Compound 79, (2S,4R)-4-hydroxy-1-((S)-2-(4-(4-(3-(2-hydroxyphenyl)thieno[3,2-c]pyridazin-6-yl)piperidin-1-yl)-4-oxobutanamido)-3,3-dimethylbutanoyl)-N-(4-(4-methylthiazol-5-yl)benzyl)pyrrolidine-2-carboxamide] were, in that order, less than 50%, not below 1000 nM, “C (“C” indicates maximum degradation < 50%)” and not below 100 nM.
The like results for `Cc1ncsc1-c1ccc([C@H](C)NC(=O)[C@@H]2C[C@@H](O)CN2C(=O)[C@@H](c2cc(OCC(=O)N3CCC(c4sc5nnc(-c6ccccc6O)cc5c4C)CC3)no2)C(C)C)cc1` [Compound 93, (2S,4R)-4-hydroxy-1-((R)-2-(3-(2-(4-(3-(2-hydroxyphenyl)-5-methylthieno[2,3-c]pyridazin-6-yl)piperidin-1-yl)-2-oxoethoxy)isoxazol-5-yl)-3-methylbutanoyl)-N-((S)-1-(4-(4-methylthiazol-5-yl)phenyl)ethyl)pyrrolidine-2-carboxamide] were, in that order, less than 50%, not below 1000 nM, “A (“A” indicates maximum degradation ≥ 75%)” and not below 10 nM.
For `Cc1ncsc1-c1ccc([C@H](C)NC(=O)[C@@H]2C[C@@H](O)CN2C(=O)[C@@H](c2cc(OCCNC(=O)[C@H]3CCc4sc5nnc(-c6ccccc6O)cc5c4C3)no2)C(C)C)cc1` [Compound 45, (S)-N-(2-((5-((R)-1-((2S,4R)-4-hydroxy-2-(((S)-1-(4-(4-methylthiazol-5-yl)phenyl)ethyl)carbamoyl)pyrrolidin-1-yl)-3-methyl-1-oxobutan-2-yl)isoxazol-3-yl)oxy)ethyl)-3-(2-hydroxyphenyl)-5,6,7,8-tetrahydrobenzo[4,5]thieno[2,3-c]pyridazine-6-carboxamide], in that order: less than 50%, not below 1000 nM, “B (“B” indicates maximum degradation ≥ 50%)” and not below 100 nM.
As to `Cc1ncsc1-c1ccc([C@H](C)NC(=O)[C@@H]2C[C@@H](O)CN2C(=O)[C@@H](c2cc(OCCN3CC(Cc4sc5nnc(-c6ccccc6O)cc5c4C)C3)no2)C(C)C)cc1` [Compound 16], in assay [1], the Dmax was less than 50% and the DC50 was not below 1000 nM. Besides, in assay [2], the “BRM HiBit Degradation Maximum (%)” value is on record as “A (“A” indicates maximum degradation ≥ 75%)” and the DC50 is not below 10 nM.
For `Cc1ncsc1-c1ccc([C@H](C)NC(=O)[C@@H]2C[C@@H](O)CN2C(=O)[C@@H](c2cc(N3CCC(C(=O)N4CCc5sc6nnc(-c7ccccc7O)cc6c5C4)CC3)no2)C(C)C)cc1` [Compound 11, (2S,4R)-4-hydroxy-1-((R)-2-(3-(4-(3-(2-hydroxyphenyl)-5,6,7,8-tetrahydropyrido[3′,4′:4,5]thieno[2,3-c]pyridazine-6-carbonyl)piperidin-1-yl)isoxazol-5-yl)-3-methylbutanoyl)-N—((S)-1-(4-(4-methylthiazol-5-yl)phenyl)ethyl)pyrrolidine-2-carboxamide], in that order: less than 50%, not below 1000 nM, “A (“A” indicates maximum degradation ≥ 75%)” and not below 100 nM.
For `Cc1ncsc1-c1ccc(CNC(=O)[C@@H]2C[C@@H](O)CN2C(=O)[C@@H](NC(=O)CCC(=O)N2CCC(c3cc4cc(-c5ccccc5O)nnc4s3)CC2)C(C)(C)C)cc1` [Compound 27], in that order: less than 50%, not below 1000 nM, “B (“B” indicates maximum degradation ≥ 50%)” and not below 1000 nM.
For `Cc1ncsc1-c1ccc(CNC(=O)[C@@H]2C[C@@H](O)CN2C(=O)[C@@H](NC(=O)C2(F)CC2)C(C)(C)C)c(OCCCN2CCC(c3sc4nnc(-c5ccccc5O)cc4c3C)CC2)c1` [Compound 81, (2S,4R)-1-((S)-2-(1-fluorocyclopropane-1-carboxamido)-3,3-dimethylbutanoyl)-4-hydroxy-N-(2-(3-(4-(3-(2-hydroxyphenyl)-5-methylthieno[2,3-c]pyridazin-6-yl)piperidin-1-yl)propoxy)-4-(4-methylthiazol-5-yl)benzyl)pyrrolidine-2-carboxamide], in that order: less than 50%, not below 10 nM, “B (“B” indicates maximum degradation ≥ 50%)” and not below 10 nM.
For `Cc1ncsc1-c1ccc([C@H](C)NC(=O)[C@@H]2C[C@@H](O)CN2C(=O)[C@@H](c2cc(N3CCN(CC(=O)N4CC(c5cc6cc(-c7ccccc7O)nnc6s5)C4)CC3)no2)C(C)C)cc1` [Compound 6, (2S,4R)-4-hydroxy-1-[(2R)-2-{3-[4-(2-{3-[3-(2-hydroxyphenyl)thieno[2,3-c]pyridazin-6-yl]azetidin-1-yl}-2-oxoethyl)piperazin-1-yl]-1,2-oxazol-5-yl}-3-methylbutanoyl]-N-[(1S)-1-[4-(4-methyl-1,3-thiazol-5-yl)phenyl]ethyl]pyrrolidine-2-carboxamide], in assay [1], the Dmax was less than 50% and the DC50 is not below 1000 nM. Moreover, in assay [2], the “BRM HiBit Degradation Maximum (%)” value is “B (“B” indicates maximum degradation ≥ 50%)” and the DC50 is not below 100 nM.
